These results are taken from ChEMBL document CHEMBL5465560, “Selectivity Literature for EUbOPEN Chemogenomic Library” (2024).

The target in test [1] is T1, G protein-coupled receptor kinase 3 (Homo sapiens) (UniProt P35626).
T1 sequence (whole entry): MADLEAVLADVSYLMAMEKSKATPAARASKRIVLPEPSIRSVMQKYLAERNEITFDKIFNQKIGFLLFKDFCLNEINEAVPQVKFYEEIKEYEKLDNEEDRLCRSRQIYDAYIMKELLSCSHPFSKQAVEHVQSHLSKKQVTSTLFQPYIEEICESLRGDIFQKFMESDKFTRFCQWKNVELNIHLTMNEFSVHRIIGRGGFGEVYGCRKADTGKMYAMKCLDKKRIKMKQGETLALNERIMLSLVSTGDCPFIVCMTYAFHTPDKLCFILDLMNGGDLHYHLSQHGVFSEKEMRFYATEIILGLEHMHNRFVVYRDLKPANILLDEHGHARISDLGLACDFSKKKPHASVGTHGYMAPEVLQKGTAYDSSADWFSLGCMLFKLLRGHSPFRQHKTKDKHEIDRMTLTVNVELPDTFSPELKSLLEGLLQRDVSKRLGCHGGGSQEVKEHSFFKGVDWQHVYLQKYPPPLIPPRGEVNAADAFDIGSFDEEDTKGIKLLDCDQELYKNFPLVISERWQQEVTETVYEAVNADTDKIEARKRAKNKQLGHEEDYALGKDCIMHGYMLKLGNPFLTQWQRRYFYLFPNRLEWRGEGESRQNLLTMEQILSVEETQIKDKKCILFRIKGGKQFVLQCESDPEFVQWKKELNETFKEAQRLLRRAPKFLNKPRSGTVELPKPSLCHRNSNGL
Put plainly: Selectivity interaction (Kinase panel (Z-LYTE Assay)) EUB0001632a ADRBK2. Conditions: at 10 µM.

In test [2] the target is Casein kinase II subunit alpha' (Homo sapiens) (UniProt P19784). Put plainly: Selectivity interaction (SelectScreen profiling (Invitrogen)) EUB0000607a CSNK2A2. Conditions: at 2 µM.
Chain of Casein kinase II subunit alpha' (Homo sapiens) (P19784 whole entry, looked up): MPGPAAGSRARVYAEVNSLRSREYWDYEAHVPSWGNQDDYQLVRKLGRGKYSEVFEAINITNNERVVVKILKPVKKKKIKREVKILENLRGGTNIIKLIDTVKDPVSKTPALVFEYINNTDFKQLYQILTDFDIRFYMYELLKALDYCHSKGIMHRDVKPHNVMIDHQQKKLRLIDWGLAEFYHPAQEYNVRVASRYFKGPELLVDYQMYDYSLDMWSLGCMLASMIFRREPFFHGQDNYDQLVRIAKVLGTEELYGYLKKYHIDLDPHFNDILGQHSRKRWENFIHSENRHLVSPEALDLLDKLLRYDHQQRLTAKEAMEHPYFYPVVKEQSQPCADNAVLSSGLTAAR
Test [3] addresses T2, Mitogen-activated protein kinase 15 (Homo sapiens) (UniProt Q8TD08).
T2 sequence (whole entry): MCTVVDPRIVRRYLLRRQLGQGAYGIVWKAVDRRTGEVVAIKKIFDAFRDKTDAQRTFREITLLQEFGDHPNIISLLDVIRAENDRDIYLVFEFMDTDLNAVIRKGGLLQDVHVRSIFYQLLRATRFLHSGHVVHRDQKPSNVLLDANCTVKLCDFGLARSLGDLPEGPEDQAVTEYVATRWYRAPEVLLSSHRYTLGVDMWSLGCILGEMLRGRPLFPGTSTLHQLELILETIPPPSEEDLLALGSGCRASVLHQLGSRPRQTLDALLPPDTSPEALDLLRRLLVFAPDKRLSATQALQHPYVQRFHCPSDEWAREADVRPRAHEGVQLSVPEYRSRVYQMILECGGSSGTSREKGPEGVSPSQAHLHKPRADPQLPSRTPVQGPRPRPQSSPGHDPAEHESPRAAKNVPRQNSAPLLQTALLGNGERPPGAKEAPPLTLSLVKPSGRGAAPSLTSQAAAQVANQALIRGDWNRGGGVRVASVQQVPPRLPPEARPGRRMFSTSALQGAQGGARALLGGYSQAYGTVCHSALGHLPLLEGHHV
The test can be described thus: Selectivity interaction (KinomeScan (DiscoverX)) EUB0000655a MAPK15. Conditions: at 10 µM.

Test [4] has as its target G protein-coupled receptor kinase 4 (Homo sapiens) (UniProt P32298). The test can be described thus: Selectivity interaction (KinomeScan (DiscoverX)) EUB0001619a GRK4. Conditions: at 1 µM.
The target of test [5] is NT-3 growth factor receptor (Homo sapiens, UniProt Q16288). The test can be described thus: Selectivity interaction (KinomeScan (DiscoverX)) EUB0000092b NTRK3. Conditions: at 10 µM.
Chain of NT-3 growth factor receptor (Q16288 32-839 limits assumed): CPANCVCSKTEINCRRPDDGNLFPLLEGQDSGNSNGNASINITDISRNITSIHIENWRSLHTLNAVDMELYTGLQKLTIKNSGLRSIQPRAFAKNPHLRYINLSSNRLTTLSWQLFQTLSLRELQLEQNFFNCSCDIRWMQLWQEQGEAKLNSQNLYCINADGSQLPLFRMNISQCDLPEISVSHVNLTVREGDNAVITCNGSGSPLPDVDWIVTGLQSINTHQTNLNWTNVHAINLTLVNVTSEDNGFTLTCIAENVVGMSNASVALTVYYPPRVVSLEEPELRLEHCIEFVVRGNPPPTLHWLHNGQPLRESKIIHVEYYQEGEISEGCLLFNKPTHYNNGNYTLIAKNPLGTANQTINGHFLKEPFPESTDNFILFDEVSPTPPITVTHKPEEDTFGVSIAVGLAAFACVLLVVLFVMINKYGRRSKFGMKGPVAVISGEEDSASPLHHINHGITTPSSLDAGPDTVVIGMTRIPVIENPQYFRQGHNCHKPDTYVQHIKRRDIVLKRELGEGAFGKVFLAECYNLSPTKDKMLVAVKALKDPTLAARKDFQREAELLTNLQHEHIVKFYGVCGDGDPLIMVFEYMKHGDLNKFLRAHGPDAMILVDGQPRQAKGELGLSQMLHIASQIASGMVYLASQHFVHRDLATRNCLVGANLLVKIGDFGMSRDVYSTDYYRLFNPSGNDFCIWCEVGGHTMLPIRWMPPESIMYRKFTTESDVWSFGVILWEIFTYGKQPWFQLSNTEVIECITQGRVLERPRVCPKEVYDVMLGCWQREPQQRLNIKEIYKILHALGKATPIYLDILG
The target of test [6] is Dual specificity protein kinase CLK1 (Homo sapiens, UniProt P49759). The test can be described thus: Selectivity interaction (KinomeScan (DiscoverX)) EUB0000618a CLK1. Conditions: at 10 µM.
Chain of Dual specificity protein kinase CLK1 (P49759 whole entry, looked up): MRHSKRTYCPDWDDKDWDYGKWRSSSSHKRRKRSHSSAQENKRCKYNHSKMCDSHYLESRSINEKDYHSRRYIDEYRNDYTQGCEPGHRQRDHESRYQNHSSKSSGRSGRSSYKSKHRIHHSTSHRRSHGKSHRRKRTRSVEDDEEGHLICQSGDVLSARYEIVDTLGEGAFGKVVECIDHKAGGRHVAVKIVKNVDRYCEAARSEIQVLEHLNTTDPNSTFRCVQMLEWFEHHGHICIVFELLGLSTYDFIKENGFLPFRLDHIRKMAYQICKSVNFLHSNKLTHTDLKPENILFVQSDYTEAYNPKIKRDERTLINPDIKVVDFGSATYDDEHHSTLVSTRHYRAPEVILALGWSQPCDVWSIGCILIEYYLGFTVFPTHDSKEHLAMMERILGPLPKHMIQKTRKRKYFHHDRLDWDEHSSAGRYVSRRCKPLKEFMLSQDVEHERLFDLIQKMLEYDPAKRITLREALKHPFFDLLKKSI
Test [7] addresses T3, Tyrosine-protein kinase Mer (Homo sapiens) (UniProt Q12866).
T3 sequence (whole entry): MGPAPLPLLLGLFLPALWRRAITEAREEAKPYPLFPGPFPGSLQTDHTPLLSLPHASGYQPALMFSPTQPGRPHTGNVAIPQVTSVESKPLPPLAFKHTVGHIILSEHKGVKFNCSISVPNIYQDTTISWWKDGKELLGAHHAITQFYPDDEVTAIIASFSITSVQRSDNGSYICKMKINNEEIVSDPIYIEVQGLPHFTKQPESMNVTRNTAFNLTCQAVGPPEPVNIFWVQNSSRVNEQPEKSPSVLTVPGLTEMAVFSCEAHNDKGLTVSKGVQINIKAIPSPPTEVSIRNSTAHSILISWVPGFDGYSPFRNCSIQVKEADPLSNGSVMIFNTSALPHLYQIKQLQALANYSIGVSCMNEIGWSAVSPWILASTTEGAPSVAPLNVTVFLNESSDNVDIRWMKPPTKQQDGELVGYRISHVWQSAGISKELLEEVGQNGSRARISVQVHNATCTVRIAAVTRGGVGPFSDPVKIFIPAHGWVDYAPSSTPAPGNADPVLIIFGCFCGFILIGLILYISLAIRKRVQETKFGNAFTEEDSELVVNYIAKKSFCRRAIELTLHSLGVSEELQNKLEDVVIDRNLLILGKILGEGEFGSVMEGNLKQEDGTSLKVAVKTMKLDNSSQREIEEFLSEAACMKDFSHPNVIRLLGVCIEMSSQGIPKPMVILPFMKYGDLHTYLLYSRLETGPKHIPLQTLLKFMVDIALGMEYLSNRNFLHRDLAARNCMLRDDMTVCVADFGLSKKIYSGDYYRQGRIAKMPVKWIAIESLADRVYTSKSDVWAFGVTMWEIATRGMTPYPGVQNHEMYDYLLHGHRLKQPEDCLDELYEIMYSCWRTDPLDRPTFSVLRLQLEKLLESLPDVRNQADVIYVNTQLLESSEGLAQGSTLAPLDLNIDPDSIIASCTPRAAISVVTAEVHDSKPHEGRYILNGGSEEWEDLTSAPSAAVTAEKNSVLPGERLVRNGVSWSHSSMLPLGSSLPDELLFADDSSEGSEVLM
The test can be described thus: Selectivity interaction (KinomeScan (DiscoverX)) EUB0000618a MERTK. Conditions: at 10 µM.

Chain of G protein-coupled receptor kinase 4 (Homo sapiens) (P32298 whole entry, looked up): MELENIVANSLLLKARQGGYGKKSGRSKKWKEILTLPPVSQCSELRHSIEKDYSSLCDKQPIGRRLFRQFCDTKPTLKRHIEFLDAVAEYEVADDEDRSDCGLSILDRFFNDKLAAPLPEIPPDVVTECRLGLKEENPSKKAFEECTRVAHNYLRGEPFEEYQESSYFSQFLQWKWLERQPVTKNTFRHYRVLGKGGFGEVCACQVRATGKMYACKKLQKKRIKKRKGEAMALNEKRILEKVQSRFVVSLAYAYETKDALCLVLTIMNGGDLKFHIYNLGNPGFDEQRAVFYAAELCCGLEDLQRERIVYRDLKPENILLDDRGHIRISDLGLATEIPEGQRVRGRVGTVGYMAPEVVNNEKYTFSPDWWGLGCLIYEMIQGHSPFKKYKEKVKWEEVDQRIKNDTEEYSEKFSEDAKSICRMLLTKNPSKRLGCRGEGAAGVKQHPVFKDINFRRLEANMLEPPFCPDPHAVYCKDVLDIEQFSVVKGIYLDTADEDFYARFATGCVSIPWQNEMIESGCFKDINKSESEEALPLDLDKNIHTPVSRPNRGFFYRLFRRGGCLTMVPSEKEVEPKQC

Consider `Cn1cc(-n2cnc3c(NCc4nc5cc(Cl)c(Cl)cc5[nH]4)nc(N4CCOCC4)nc32)cn1`, for which the % of control in test [1] was -1.17%.

Take `CNC(=O)Nc1ccc(-c2nc(N3CC4CCC(C3)O4)c3cnn(C4CCC5(CC4)OCCO5)c3n2)cc1`: the % of inhibition in test [2] is 3%.

`CN(C)CCOc1ccc(-c2nc(-c3ccncc3)c(-c3ccc4c(c3)CC/C4=N\O)[nH]2)cc1`: the % of control in test [3] was 100%.

`N#Cc1cccc(-c2c[nH]c3ncnc(N4CCOCC4)c23)c1`: the % of control in test [4] turned out to be 52%. On to `CCC(=O)N1CCN(c2ccc(-n3c(=O)ccc4cnc5ccc(-c6cnc7ccccc7c6)cc5c43)cc2C(F)(F)F)CC1`, for which the % of control in test [5] worked out at 100%. For the compound `O[C@H]1CC[C@H](Nc2ncc3nc(Nc4c(F)cc(F)cc4F)n([C@H]4CCOC4)c3n2)CC1`, the % of control in test [6] was 79%; in test [7], 17%.
